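Five compound concentrations were applied to cells in 96-well plates for 48 hours; endpoints were derived by simple linear interpolation of the resulting dose-response curve. GI50 is the concentration that inhibits growth by half.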 Active and inactive are the calls of the source. Rule as the data show it: active = GI50 up to about 1.1 µM and inactive = higher.
Experiments:
Assay in all cases: NCI anticancer screen, dose series, 48 h
[1] = system: NCI-H460
[2] = system: SF-268
[3] = system: NCI-H522
[4] = system: HT-29
[5] = system: SK-OV-3
[6] = system: HOP-92
[7] = system: CAKI-1
[8] = system: OVCAR-3
[9] = system: SK-MEL-5
[10] = system: TK-10
[11] = system: LOX IMVI
[12] = system: SK-MEL-2
[13] = system: Malme-3M
[14] = system: 786-0
[15] = system: UACC-257
[16] = system: SR
[17] = system: SF-295
[18] = system: DU-145
[19] = system: SK-MEL-28
[20] = system: BT-549
[21] = system: NCI-H226
[22] = system: ACHN
[23] = system: SNB-19
[24] = system: SW-620
[25] = system: Hs-578T
[26] = system: MOLT-4
[27] = system: KM12
[28] = system: PC-3
[29] = system: MCF7
[30] = system: OVCAR-8
[31] = system: HCC 2998
[32] = system: SF-539
[33] = system: RPMI-8226
[34] = system: EKVX
[35] = system: NCI/ADR-RES
[36] = system: HCT-15
[37] = system: IGROV-1
[38] = system: UACC-62
[39] = system: OVCAR-4
[40] = system: HOP-62
[41] = system: UO-31
[42] = system: MDA-MB-435
[43] = system: COLO 205
[44] = system: U-251
[45] = system: HCT-116
[46] = system: NCI-H23
[47] = system: MDA-MB-231
[48] = system: CCRF-CEM
[49] = system: A549
[50] = system: SN12C
[51] = system: T47D
[52] = system: M14
[53] = system: OVCAR-5
[54] = system: SNB-75
[55] = system: K562

CN(C)CCn1c2c(c3ccccc31)CCc1ccccc1-2
GI50 [1]: 14.4 µM (inactive)
GI50 [2]: 17.9 µM (inactive)
GI50 [3]: 15.9 µM (inactive)
GI50 [4]: 8.99 µM (inactive)
GI50 [5]: 18.7 µM (inactive)
GI50 [6]: 14 µM (inactive)
GI50 [7]: 14.9 µM (inactive)
GI50 [8]: 14.6 µM (inactive)
GI50 [9]: 6.1 µM (inactive)
GI50 [10]: 16.7 µM (inactive)
GI50 [11]: 17 µM (inactive)
GI50 [12]: 15.3 µM (inactive)
GI50 [13]: 16.1 µM (inactive)
GI50 [14]: 14.8 µM (inactive)
GI50 [15]: 14.6 µM (inactive)
GI50 [16]: 10.8 µM (inactive)
GI50 [17]: 16.9 µM (inactive)
GI50 [18]: 16.1 µM (inactive)
GI50 [19]: 15.8 µM (inactive)
GI50 [20]: 14.5 µM (inactive)
GI50 [21]: 12.8 µM (inactive)
GI50 [22]: 16.3 µM (inactive)
GI50 [23]: 16.3 µM (inactive)
GI50 [24]: 18.8 µM (inactive)
GI50 [25]: 15.1 µM (inactive)
GI50 [26]: 10.8 µM (inactive)
GI50 [27]: 13.4 µM (inactive)
GI50 [28]: 11.4 µM (inactive)
GI50 [29]: 16.8 µM (inactive)
GI50 [30]: 16 µM (inactive)
GI50 [31]: 0.569 µM (active)
GI50 [32]: 13.4 µM (inactive)
GI50 [33]: 6.49 µM (inactive)
GI50 [34]: 17.4 µM (inactive)
GI50 [35]: 15.6 µM (inactive)
GI50 [36]: 10.7 µM
GI50 [37]: 10 µM (inactive)
GI50 [38]: 13 µM (inactive)
GI50 [39]: 14.3 µM (inactive)
GI50 [40]: 15.7 µM (inactive)
GI50 [41]: 13.6 µM (inactive)
GI50 [42]: 17.4 µM (inactive)
GI50 [43]: 11.3 µM (inactive)
GI50 [44]: 13.6 µM (inactive)
GI50 [45]: 12 µM (inactive)
GI50 [46]: 17.4 µM (inactive)
GI50 [47]: 13.9 µM (inactive)
GI50 [48]: 18.7 µM (inactive)
GI50 [49]: 15 µM (inactive)
GI50 [50]: 13.8 µM (inactive)
GI50 [51]: 15.8 µM (inactive)
GI50 [52]: 13.5 µM (inactive)
GI50 [53]: 17.9 µM (inactive)

CCCCn1c(C)c(C)c2c1NN=C(C#N)S2(=O)=O
GI50 [1]: > 100 µM (inactive)
GI50 [2]: > 100 µM (inactive)
GI50 [3]: 64.7 µM (inactive)
GI50 [4]: > 100 µM (inactive)
GI50 [5]: > 100 µM (inactive)
GI50 [8]: > 100 µM (inactive)
GI50 [9]: > 100 µM (inactive)
GI50 [10]: > 100 µM (inactive)
GI50 [11]: > 100 µM (inactive)
GI50 [12]: > 100 µM (inactive)
GI50 [13]: > 100 µM (inactive)
GI50 [14]: > 100 µM (inactive)
GI50 [15]: > 100 µM (inactive)
GI50 [16]: 75 µM (inactive)
GI50 [18]: > 100 µM (inactive)
GI50 [19]: > 100 µM (inactive)
GI50 [20]: > 100 µM (inactive)
GI50 [22]: > 100 µM (inactive)
GI50 [23]: > 100 µM (inactive)
GI50 [24]: > 100 µM (inactive)
GI50 [25]: > 100 µM (inactive)
GI50 [26]: > 100 µM (inactive)
GI50 [27]: > 100 µM (inactive)
GI50 [28]: > 100 µM (inactive)
GI50 [29]: > 100 µM (inactive)
GI50 [30]: > 100 µM (inactive)
GI50 [31]: > 100 µM (inactive)
GI50 [32]: > 100 µM (inactive)
GI50 [33]: > 100 µM (inactive)
GI50 [34]: > 100 µM (inactive)
GI50 [35]: > 100 µM (inactive)
GI50 [36]: > 100 µM
GI50 [37]: > 100 µM (inactive)
GI50 [38]: > 100 µM (inactive)
GI50 [54]: > 100 µM (inactive)
GI50 [39]: > 100 µM (inactive)
GI50 [40]: > 100 µM (inactive)
GI50 [55]: > 100 µM (inactive)
GI50 [41]: > 100 µM (inactive)
GI50 [42]: > 100 µM (inactive)
GI50 [43]: > 100 µM (inactive)
GI50 [44]: > 100 µM (inactive)
GI50 [45]: > 100 µM (inactive)
GI50 [46]: > 100 µM (inactive)
GI50 [47]: > 100 µM (inactive)
GI50 [49]: > 100 µM (inactive)
GI50 [50]: > 100 µM (inactive)
GI50 [51]: > 100 µM (inactive)
GI50 [52]: > 100 µM (inactive)
GI50 [53]: > 100 µM (inactive)

Source: ChEMBL document CHEMBL1201862, “PubChem BioAssay data set” (2004)
